Measurements: US7638509B2, “Diene compounds and formulations” (priority 2003, dated 2009)
Where a chain is given by its changes, count along the chain named.

What was measured:
AR = biological target: T1, AR (Homo sapiens, UniProt P10275, T878A); assay: Adiol-induced AR transcription, MMTV-Luc in LNCaP cells; assay type: cell-based; conditions: 2.5 nM Adiol, compound at 1 μM
T1 construct: LNCaP without transfection; endogenous in cells; host or cells: LNCaP
T1 sequence (P10275 1-920 T878A): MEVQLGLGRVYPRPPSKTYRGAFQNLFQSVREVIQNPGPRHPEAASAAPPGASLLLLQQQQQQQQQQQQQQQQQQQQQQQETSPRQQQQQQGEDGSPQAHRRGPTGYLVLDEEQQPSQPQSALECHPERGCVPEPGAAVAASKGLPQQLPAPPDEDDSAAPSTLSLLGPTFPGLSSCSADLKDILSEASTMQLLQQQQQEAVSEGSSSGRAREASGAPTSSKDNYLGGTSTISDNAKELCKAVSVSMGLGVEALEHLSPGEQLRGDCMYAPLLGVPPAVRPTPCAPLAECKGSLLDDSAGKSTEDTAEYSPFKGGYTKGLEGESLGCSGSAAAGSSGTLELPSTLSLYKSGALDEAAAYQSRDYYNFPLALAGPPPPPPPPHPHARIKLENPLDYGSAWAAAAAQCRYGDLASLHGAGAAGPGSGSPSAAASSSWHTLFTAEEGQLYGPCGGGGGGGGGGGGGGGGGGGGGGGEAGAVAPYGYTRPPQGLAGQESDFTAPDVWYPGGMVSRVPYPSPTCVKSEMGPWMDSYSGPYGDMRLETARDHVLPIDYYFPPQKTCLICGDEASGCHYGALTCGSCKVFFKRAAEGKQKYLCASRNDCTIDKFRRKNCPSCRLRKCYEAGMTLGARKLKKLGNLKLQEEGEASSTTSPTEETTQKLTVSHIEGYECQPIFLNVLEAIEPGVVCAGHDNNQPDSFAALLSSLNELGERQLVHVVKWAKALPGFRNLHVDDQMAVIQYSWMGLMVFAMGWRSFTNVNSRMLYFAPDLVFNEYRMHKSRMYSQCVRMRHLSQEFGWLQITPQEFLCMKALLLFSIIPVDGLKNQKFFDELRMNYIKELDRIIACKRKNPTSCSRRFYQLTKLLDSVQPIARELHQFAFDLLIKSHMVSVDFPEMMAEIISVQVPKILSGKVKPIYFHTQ
Experimental: Cell Culture, Transfection, and Reporter Gene Assay. The human prostate cancer cell lines, LNCaP, PC-3, and DU145, and non-prostate cancer cell line COS-1 were maintained in RPMI or Dulbecco's modified Eagle's medium (DMEM) (Life Technologies) supplemented with 10% fetal bovine serum (FBS). Transfections and luciferase (Luc) assays were performed as previously described (Miyamoto, H., Yeh, S., Wilding, G. & Chang, C. (1998) Proc. Natl. Acad. Sci. USA 95, 7379-7384; Miyamoto, H., Rahman, M., Takatera, H., Kang, H.-Y., Yeh, S., Chang, H.-C., Nishimura, K., Fujimoto, N. & Chang, C. (2002) J. Biol. Chem. 277, 4609-4617). Briefly, cells seeded to reach a density of 50-60% confluence in 12 well tissue culture plates were transfected with 1.5 μg of DNA according to “SuperFect transfection” instructions (Qiagen). After 2-3 h incubation, cells were treated with medium supplemented with charcoal-stripped FBS containing either ethanol or ligands for 24 h. The cells were then harvested and whole cell extracts were used for Luc assay. The Luc activity was determined using a Dual-Luciferase Reporter Assay System (Promega) and luminometer.
Effect of ADEK on AR Transcription. […] (set as 100%). Values were obtained from the mean±SD of at least three determinations.

wild-type AR = biological target: T2, wild-type AR (Homo sapiens, UniProt P10275); assay: Competitive [3H]-R1881 ligand binding assay, extracts of COS-1 transfected with wild-type AR; parameters: expressed in transfected cells; host or cells: COS-1; conditions: 1 nM [3H]-R1881, unlabeled ligand 1-10,000 nM, relative to DHT
T2 sequence (P10275 1-920): T1 sequence (P10275 1-920 T878A) with A878T
Experimental: Ligand Binding Assay. Whole cell extracts from COS-1 with transient transfection of pSG5-AR, or LNCaP without transfection, were incubated for 2 h at 37° C. with 1 nM [^3H]-synthetic androgen methyltrienolone (R1881) in the presence and absence of increasing concentrations (1-10,000 nM) of unlabeled ligands. Then, hydroxyapatite (Bio-Rad) was added and stirred for 15 min at 4° C. After centrifugation and washing, radioactivity was determined by scintillation counting.
Clinically available antiandrogens have an affinity for the AR, allowing a competition with androgens for binding. To determine whether ADEK has this common feature of AR antagonists, the competitive androgen binding assay was performed.

SMILES: CC(=O)O[C@H]1C=C[C@@]2(C)C(=CC[C@@H]3[C@@H]2CC[C@@]2(C)[C@H]3CCC23OCCO3)C1 [ADEK, 3β-acetoxy-17,17-ethylenedioxyandrosta-1,5-diene]
- repression of Adiol-induced AR transcription (AR): ~58%
- RBA in COS-1 with AR (wild-type AR): 6.0
